Reference: patent publication US20250145665A1, “MACROCYCLIC PEPTIDES USEFUL AS MODULATORS OF TNF ALPHA” (Bristol-Myers Squibb Company, priority 2023, published 2025)
Starred links: 1 amine or outer side, 2 acyl side, 3 side chain; linkers in the order of their positions; H or OH if unused. Positions of bridges follow the written chain, without caps; N, C: chain ends. Non-standard residues stand in square brackets, D forms with d. Residues, ends and D or L forms follow the SMILES beside them. *: point of attachment. Bip(4'-NHCO-C6H4-3-CH2COOH) = N[C@@H](Cc1ccc(-c2ccc(NC(=O)c3cccc(CC(=O)O)c3)cc2)cc1)C(=O)O; Bip(4'-NHCO-C6H4-4-CH2COOH) = N[C@@H](Cc1ccc(-c2ccc(NC(=O)c3ccc(CC(=O)O)cc3)cc2)cc1)C(=O)O; dArg(Nω-CH2C6H4-3-CH2Gua) = N=C(N)NCc1cccc(CNC(=N)NCCC[C@@H](N)C(=O)O)c1; X21 = N=C(NCCC[C@@H](N[*:1])C(=O)[*:2])NC[C@H](O)[C@@H](O)[C@@H](O)CO; Bip(4'-NH) = O=C([C@H](Cc1ccc(-c2ccc(N[*:3])cc2)cc1)N[*:1])[*:2]; dArg(ω-(3-HO-benzyl)) = N=C(NCCC[C@@H](N)C(=O)O)NCc1cccc(O)c1; Indazole3carbonyl(1-CH2COOH) = O=C(O)Cn1nc(C(=O)*)c2ccccc21; Bip(4'-COOH) = N[C@@H](Cc1ccc(-c2ccc(C(=O)O)cc2)cc1)C(=O)O; dArg(ω-Bn) = N=C(NCCC[C@@H](N)C(=O)O)NCc1ccccc1; Ala(morpholin-4-yl) = N[C@@H](CN1CCOCC1)C(=O)O; Benzoyl(3-OCH2COOH) = O=C(O)COc1cccc(C(=O)*)c1; Phe(3-CONH2) = NC(=O)c1cccc(C[C@H](N)C(=O)O)c1; Bip = N[C@@H](Cc1ccc(-c2ccccc2)cc1)C(=O)O; 2Pal = N[C@@H](Cc1ccccn1)C(=O)O; 2Thi = N[C@@H](Cc1cccs1)C(=O)O; Cha = N[C@@H](CC1CCCCC1)C(=O)O; Tle = CC(C)(C)[C@H](N)C(=O)O; Sar = CNCC(=O)O

Biological target: TNFα (Homo sapiens, UniProt P01375)
Experiment: TNF-Induced HEK-Blue Assay
Format: cell-based
Details: not given

Chain of TNFα (P01375 77-233 limits assumed): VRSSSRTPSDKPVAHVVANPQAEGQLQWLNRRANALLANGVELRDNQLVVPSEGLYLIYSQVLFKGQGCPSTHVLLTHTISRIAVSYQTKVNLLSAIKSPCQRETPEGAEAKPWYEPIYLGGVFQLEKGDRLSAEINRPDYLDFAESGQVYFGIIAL

Row | Compound | IC50 [nM]
1 | CC(C)C[C@@H]1NC(=O)[C@H](Cc2cccc(C(N)=O)c2)NC(=O)[C@H](C(C)C)NC(=O)[C@@H]2CCCN2C(=O)[C@H](C(C)C)NC(=O)[C@@H](CCCNC(=N)NCc2cccc(CNC(=N)N)c2)NC(=O)[C@H](CC(=O)O)NC(=O)[C@H](Cc2ccc(O)cc2)NC(=O)CN(C)C(=O)[C@H](Cc2ccc(-c3ccc(NC(=O)c4nn(CC(=O)O)c5ccccc45)cc3)cc2)NC(=O)[C@H](Cc2ccc(-c3ccccc3)cc2)NC(=O)[C@H](CN2CCOCC2)NC(=O)CSC[C@@H](C(=O)NCC(N)=O)NC1=O [Example 620] ({CH2CO}-[Ala(morpholin-4-yl)][Bip][Bip(4'-NH)](Indazole3carbonyl(1-CH2COOH))[Sar]YD[dArg(Nω-CH2C6H4-3-CH2Gua)]VPV[Phe(3-CONH2)]LCG-NH2; thioether N-13) | < 50
2 | CC(C)C[C@@H]1NC(=O)[C@H](Cc2cnc[nH]2)NC(=O)[C@H](C(C)C)NC(=O)[C@@H]2CCCN2C(=O)[C@H](C(C)C)NC(=O)[C@@H](CCCNC(=N)NCc2cccc(CNC(=N)N)c2)NC(=O)[C@H](CC(=O)O)NC(=O)[C@H](Cc2ccccn2)NC(=O)CN(C)C(=O)[C@H](Cc2ccc(-c3ccc(NC(=O)c4nn(CC(=O)O)c5ccccc45)cc3)cc2)NC(=O)[C@H](Cc2ccc(-c3ccccc3)cc2)NC(=O)[C@H](CN2CCOCC2)NC(=O)CSC[C@@H](C(=O)NCC(N)=O)NC1=O [Example 621] ({CH2CO}-[Ala(morpholin-4-yl)][Bip][Bip(4'-NH)](Indazole3carbonyl(1-CH2COOH))[Sar][2Pal]D[dArg(Nω-CH2C6H4-3-CH2Gua)]VPVHLCG-NH2; thioether N-13) | < 50
3 | CC(C)C[C@@H]1NC(=O)[C@H](Cc2ccc(O)cc2)NC(=O)[C@H](C(C)C)NC(=O)[C@@H]2CCCN2C(=O)[C@H](C(C)C)NC(=O)[C@@H](CCCNC(=N)NCc2cccc(CNC(=N)N)c2)NC(=O)[C@H](CC(=O)O)NC(=O)[C@@H]2CCCN2C(=O)CN(C)C(=O)[C@H](Cc2ccc(-c3ccc(NC(=O)c4nn(CC(=O)O)c5ccccc45)cc3)cc2)NC(=O)[C@H](Cc2ccc(-c3ccccc3)cc2)NC(=O)[C@H](CN2CCOCC2)NC(=O)CSC[C@@H](C(=O)NCC(N)=O)NC1=O [Example 622] ({CH2CO}-[Ala(morpholin-4-yl)][Bip][Bip(4'-NH)](Indazole3carbonyl(1-CH2COOH))[Sar]PD[dArg(Nω-CH2C6H4-3-CH2Gua)]VPVYLCG-NH2; thioether N-13) | < 50
4 | CC(C)C[C@@H]1NC(=O)[C@H](Cc2cccs2)NC(=O)[C@H](C(C)C)NC(=O)[C@@H]2CCCN2C(=O)[C@H](C(C)C)NC(=O)[C@@H](CCCNC(=N)NCc2cccc(CNC(=N)N)c2)NC(=O)[C@H](CC(=O)O)NC(=O)[C@H](Cc2ccccn2)NC(=O)CN(C)C(=O)[C@H](Cc2ccc(-c3ccc(NC(=O)c4nn(CC(=O)O)c5ccccc45)cc3)cc2)NC(=O)[C@H](Cc2ccc(-c3ccccc3)cc2)NC(=O)[C@H](CN2CCOCC2)NC(=O)CSC[C@@H](C(=O)NCC(N)=O)NC1=O [Example 623] ({CH2CO}-[Ala(morpholin-4-yl)][Bip][Bip(4'-NH)](Indazole3carbonyl(1-CH2COOH))[Sar][2Pal]D[dArg(Nω-CH2C6H4-3-CH2Gua)]VPV[2Thi]LCG-NH2; thioether N-13) | < 50
5 | CC(C)C[C@@H]1NC(=O)[C@H](Cc2cnc[nH]2)NC(=O)[C@H](C(C)C)NC(=O)[C@@H]2CCCN2C(=O)[C@H](C(C)C)NC(=O)[C@@H](CCCNC(=N)NCc2cccc(O)c2)NC(=O)[C@H](CC(=O)O)NC(=O)[C@H](Cc2ccccn2)NC(=O)CN(C)C(=O)[C@H](Cc2ccc(-c3ccc(NC(=O)c4nn(CC(=O)O)c5ccccc45)cc3)cc2)NC(=O)[C@H](Cc2ccc(-c3ccccc3)cc2)NC(=O)[C@H](CN2CCOCC2)NC(=O)CSC[C@@H](C(=O)NCC(N)=O)NC1=O [Example 624] ({CH2CO}-[Ala(morpholin-4-yl)][Bip][Bip(4'-NH)](Indazole3carbonyl(1-CH2COOH))[Sar][2Pal]D[dArg(ω-(3-HO-benzyl))]VPVHLCG-NH2; thioether N-13) | < 50
6 | CC(C)C[C@@H]1NC(=O)[C@H](Cc2ccc(O)cc2)NC(=O)[C@H](C(C)C)NC(=O)[C@@H]2CCCN2C(=O)[C@H](C(C)C)NC(=O)[C@@H](CCCNC(=N)NCc2cccc(O)c2)NC(=O)[C@H](CC(=O)O)NC(=O)[C@@H]2CCCN2C(=O)CN(C)C(=O)[C@H](Cc2ccc(-c3ccc(NC(=O)c4nn(CC(=O)O)c5ccccc45)cc3)cc2)NC(=O)[C@H](Cc2ccc(-c3ccccc3)cc2)NC(=O)[C@H](CN2CCOCC2)NC(=O)CSC[C@@H](C(=O)NCC(N)=O)NC1=O [Example 625] ({CH2CO}-[Ala(morpholin-4-yl)][Bip][Bip(4'-NH)](Indazole3carbonyl(1-CH2COOH))[Sar]PD[dArg(ω-(3-HO-benzyl))]VPVYLCG-NH2; thioether N-13) | < 50
7 | CC(C)C[C@@H]1NC(=O)[C@H](Cc2cccs2)NC(=O)[C@H](C(C)C)NC(=O)[C@@H]2CCCN2C(=O)[C@H](C(C)C)NC(=O)[C@@H](CCCNC(=N)NCc2cccc(O)c2)NC(=O)[C@H](CC(=O)O)NC(=O)[C@H](Cc2ccccn2)NC(=O)CN(C)C(=O)[C@H](Cc2ccc(-c3ccc(NC(=O)c4nn(CC(=O)O)c5ccccc45)cc3)cc2)NC(=O)[C@H](Cc2ccc(-c3ccccc3)cc2)NC(=O)[C@H](CN2CCOCC2)NC(=O)CSC[C@@H](C(=O)NCC(N)=O)NC1=O [Example 626] ({CH2CO}-[Ala(morpholin-4-yl)][Bip][Bip(4'-NH)](Indazole3carbonyl(1-CH2COOH))[Sar][2Pal]D[dArg(ω-(3-HO-benzyl))]VPV[2Thi]LCG-NH2; thioether N-13) | 50 to 200
8 | CC(C)C[C@@H]1NC(=O)[C@H](Cc2cnc[nH]2)NC(=O)[C@H](C(C)C)NC(=O)[C@@H]2CCCN2C(=O)[C@H](C(C)C)NC(=O)[C@@H](CCCNC(=N)NCc2ccccc2)NC(=O)[C@H](CC(=O)O)NC(=O)[C@H](Cc2ccccn2)NC(=O)CN(C)C(=O)[C@H](Cc2ccc(-c3ccc(NC(=O)c4nn(CC(=O)O)c5ccccc45)cc3)cc2)NC(=O)[C@H](Cc2ccc(-c3ccccc3)cc2)NC(=O)[C@H](CN2CCOCC2)NC(=O)CSC[C@@H](C(=O)NCC(N)=O)NC1=O [Example 628] ({CH2CO}-[Ala(morpholin-4-yl)][Bip][Bip(4'-NH)](Indazole3carbonyl(1-CH2COOH))[Sar][2Pal]D[dArg(ω-Bn)]VPVHLCG-NH2; thioether N-13) | < 50

Same assay, conditions: HEK-Blue-CD40L cells, NF-kB-driven secreted alkaline phosphatase reporter; TNFα 0.5 ng/ml; 18 h; read-out: TNF induced HEK-Blue assay IC50 value

Row | Compound | IC50 [nM]
9 | CC(C)C[C@@H]1NC(=O)[C@H](Cc2cccs2)NC(=O)[C@H](C(C)C)NC(=O)[C@@H]2CCCN2C(=O)[C@H](C(C)C)NC(=O)[C@@H](CCCNC(=N)N)NC(=O)[C@H](CC(=O)O)NC(=O)[C@H](Cc2ccccn2)NC(=O)CN(C)C(=O)[C@H](Cc2ccc(-c3ccc(NC(=O)c4cccc(OCC(=O)O)c4)cc3)cc2)NC(=O)[C@H](Cc2ccc(-c3ccc(C(=O)O)cc3)cc2)NC(=O)[C@H](C(C)(C)C)NC(=O)CSC[C@@H](C(=O)NCC(N)=O)NC1=O [Example 615] ({CH2CO}-[Tle][Bip(4'-COOH)][Bip(4'-NH)](Benzoyl(3-OCH2COOH))[Sar][2Pal]D[dR]VPV[2Thi]LCG-NH2; thioether N-13) | 50 to 200
10 | CC(C)C[C@@H]1NC(=O)[C@H](Cc2cccs2)NC(=O)[C@H](C(C)C)NC(=O)[C@@H]2CCCN2C(=O)[C@H](C(C)C)NC(=O)[C@@H](CCCNC(=N)N)NC(=O)[C@H](CC(=O)O)NC(=O)[C@H](Cc2ccccn2)NC(=O)CN(C)C(=O)[C@H](Cc2ccc(-c3ccc(NC(=O)c4cccc(OCC(=O)O)c4)cc3)cc2)NC(=O)[C@H](Cc2ccc(-c3ccccc3)cc2)NC(=O)[C@H](CC2CCCCC2)NC(=O)CSC[C@@H](C(=O)NCC(N)=O)NC1=O [Example 616] ({CH2CO}-[Cha][Bip][Bip(4'-NH)](Benzoyl(3-OCH2COOH))[Sar][2Pal]D[dR]VPV[2Thi]LCG-NH2; thioether N-13) | 50 to 200
11 | CC(C)C[C@@H]1NC(=O)[C@H](Cc2cccs2)NC(=O)[C@H](C(C)C)NC(=O)[C@@H]2CCCN2C(=O)[C@H](C(C)C)NC(=O)[C@@H](CCCNC(=N)N)NC(=O)[C@H](CC(=O)O)NC(=O)[C@H](Cc2ccccn2)NC(=O)CN(C)C(=O)[C@H](Cc2ccc(-c3ccc(NC(=O)c4ccc(CC(=O)O)cc4)cc3)cc2)NC(=O)[C@H](Cc2ccc(-c3ccccc3)cc2)NC(=O)[C@H](CC2CCCCC2)NC(=O)CSC[C@@H](C(=O)NCC(N)=O)NC1=O [Example 617] ({CH2CO}-[Cha][Bip][Bip(4'-NHCO-C6H4-4-CH2COOH)][Sar][2Pal]D[dR]VPV[2Thi]LCG-NH2; thioether N-13) | < 50
12 | CC(C)C[C@@H]1NC(=O)[C@H](Cc2cccs2)NC(=O)[C@H](C(C)C)NC(=O)[C@@H]2CCCN2C(=O)[C@H](C(C)C)NC(=O)[C@@H](CCCNC(=N)N)NC(=O)[C@H](CC(=O)O)NC(=O)[C@H](Cc2ccccn2)NC(=O)CN(C)C(=O)[C@H](Cc2ccc(-c3ccc(NC(=O)c4cccc(CC(=O)O)c4)cc3)cc2)NC(=O)[C@H](Cc2ccc(-c3ccccc3)cc2)NC(=O)[C@H](CC2CCCCC2)NC(=O)CSC[C@@H](C(=O)NCC(N)=O)NC1=O [Example 618] ({CH2CO}-[Cha][Bip][Bip(4'-NHCO-C6H4-3-CH2COOH)][Sar][2Pal]D[dR]VPV[2Thi]LCG-NH2; thioether N-13) | 50 to 200
13 | CC(C)C[C@@H]1NC(=O)[C@H](CCCNC(=N)N)NC(=O)[C@H](C(C)C)NC(=O)[C@@H]2CCCN2C(=O)[C@H](C(C)C)NC(=O)[C@@H](CCCNC(=N)NC[C@H](O)[C@@H](O)[C@@H](O)CO)NC(=O)[C@H](CC(=O)O)NC(=O)[C@@H]2CCCN2C(=O)CN(C)C(=O)[C@H](Cc2ccc(-c3ccc(NC(=O)c4cccc(CC(=O)O)c4)cc3)cc2)NC(=O)[C@H](Cc2ccc(-c3ccccc3)cc2)NC(=O)[C@H](CN2CCOCC2)NC(=O)CSC[C@@H](C(=O)NCC(N)=O)NC1=O [Example 627] ({CH2CO}-[Ala(morpholin-4-yl)][Bip][Bip(4'-NHCO-C6H4-3-CH2COOH)][Sar]PD[X21]VPVRLCG-NH2; thioether N-13) | 50 to 200
